Structures are written as SMILES. Where two headings read alike, the source gives them in different places. Square brackets hold non-standard residues; d marks the D form. Peptide text beside a SMILES is read from it. * marks the point of attachment. X1 = C[N+](C)(C)[C@@H](Cc1ccccc1)C(=O)*; NMe2Phe = CN(C)[C@@H](Cc1ccccc1)C(=O)*; NMeF = CN[C@@H](Cc1ccccc1)C(=O)O; dCha = N[C@H](CC1CCCCC1)C(=O)O

One assay addresses T1, motilin receptor (Oryctolagus cuniculus, UniProt G1T803).
T1 construct: from tissue; host or cells: rabbit antral smooth muscle membranes
The experiment in a line: Determination of motilin receptor binding affinity (displacement of [125I-Tyr7, Nle13]motilin(porcine)). Set-up: species or system rabbit. The method, then: The motilin receptor binding affinity of the peptides of this invention was determined by using the general procedure of Bormans, Peelers and Vantrappen, Regul. […] Fitting was performed using the iterative least-squares procedure of the SAS-software package (SAS Institute, Inc., Cary, N.C., USA).

Assay [1] addresses segments of rabbit duodenum (Oryctolagus cuniculus, UniProt G1T803). Description: Rabbit duodenal smooth muscle strip tissue bath assay. The assay is classed as cell-based. The conditions noted are these: negative logarithm of the dose giving 50% of the maximal response to motilin; isotonic contraction of rabbit duodenum segments. The method, then: The contractile response of segments of rabbit duodenum was determined isotonically in the tissue bath according to the procedure of Depoortere et at., J. Gastrointestinal Motility, 1, 150-159 (1989). The experimental protocol consisted of an equilibration period of 1 hour; a challenge with 10^-4 M acetylcholine followed by a wash-out period; a cumulative dose-response curve of a compound with, at the end, the addition of 10^-7 M motilin; and finally 10^-4 M acetylcholine. If the final response to 10^-4 M acetylcholine differed by more than 5% from the initial response, the results were discarded. The compounds were tested in the concentration range 10^-11 to 10^-4 M. The point corresponding to 50% of the maximal response to motilin (Emax) was determined by fitting the equation E=Emax (1+EC50 /[L]) through the data points. […] The dose giving 50% of the response is expressed using its negative logarithm (pEC50).

[2] abbreviates: negative logarithm of the concentration displacing 50% of [125I-Tyr7, Nle13]motilin(porcine) from rabbit antral smooth muscle membranes, read-out: pIC50 (converted).

Chain of segments of rabbit duodenum (G1T803 1-400): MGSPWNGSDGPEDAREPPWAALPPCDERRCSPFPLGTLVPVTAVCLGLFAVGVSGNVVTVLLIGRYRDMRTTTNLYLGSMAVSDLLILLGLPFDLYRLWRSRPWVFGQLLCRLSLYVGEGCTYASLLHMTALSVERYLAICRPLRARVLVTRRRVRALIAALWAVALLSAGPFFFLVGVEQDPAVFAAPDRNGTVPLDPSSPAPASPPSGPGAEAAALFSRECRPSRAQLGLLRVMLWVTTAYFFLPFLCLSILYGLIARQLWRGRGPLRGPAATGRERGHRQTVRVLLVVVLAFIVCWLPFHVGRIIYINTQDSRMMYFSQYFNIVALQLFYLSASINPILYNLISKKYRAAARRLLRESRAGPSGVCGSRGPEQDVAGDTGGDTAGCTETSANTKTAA
T1 sequence (G1T803 1-400): as above

`CC[C@H](C)[C@H](NC(=O)[C@H](C)NC(=O)[C@@H](NC(=O)[C@@H](N)Cc1ccccc1)C(C)C)C(=O)N[C@@H](Cc1ccccc1)C(=O)N[C@H](C(=O)N[C@@H](Cc1ccc(O)cc1)C(=O)NCC(=O)N[C@@H](CCC(=O)O)C(=O)N[C@@H](CC(C)C)C(=O)N[C@@H](CCC(N)=O)C(=O)N[C@H](CCCNC(=N)N)C(=O)N[C@@H](CC(C)C)C(=O)N[C@@H](CCC(N)=O)C(N)=O)[C@@H](C)O` (H-FVAIFTYGELQ[dR]LQ-NH2): the IC50 at motilin receptor (setting [2]) was 1.95 nM. For the same compound, the pEC50 (in general, −log10 of the EC50, conventionally taken in molar units) in assay [1] came to 7.76.

For the compound `CC[C@H](C)[C@H](NC(=O)[C@@H]1CCCN1C(=O)[C@@H](NC(=O)[C@@H](N)Cc1ccccc1)C(C)C)C(=O)N[C@@H](Cc1ccccc1)C(=O)N[C@H](C(=O)N[C@@H](Cc1ccc(O)cc1)C(=O)NCC(=O)N[C@@H](CCC(=O)O)C(=O)N[C@@H](CC(C)C)C(=O)N[C@@H](CCC(N)=O)C(=O)N[C@H](CCCNC(=N)N)C(=O)N[C@@H](CC(C)C)C(=O)N[C@@H](CCCCN)C(N)=O)[C@@H](C)O` (H-FVPIFTYGELQ[dR]LK-NH2), the IC50 on motilin receptor (setting [2]) is 1.29 nM. The same compound returned a negative-log EC50 (pEC50) in assay [1] of 7.13.

With `CC[C@H](C)[C@H](NC(=O)[C@H](C)NC(=O)[C@@H](NC(=O)[C@H](Cc1ccccc1)NC)C(C)C)C(=O)N[C@@H](Cc1ccccc1)C(=O)N[C@H](C(=O)N[C@@H](Cc1ccc(O)cc1)C(=O)NCC(=O)N[C@@H](CCC(=O)O)C(=O)N[C@@H](CC(C)C)C(=O)N[C@@H](C)C(=O)N[C@H](CCCNC(=N)N)C(=O)N[C@@H](CC(C)C)C(=O)N[C@H](CCC(N)=O)C(N)=O)[C@@H](C)O` (H-[NMeF]VAIFTYGELA[dR]L[dQ]-NH2), the IC50 at motilin receptor (setting [2]) was 0.724 nM. Moreover, in assay [1], the pEC50 turned out to be 7.32.

As for `CC[C@H](C)[C@H](NC(=O)[C@H](C)NC(=O)[C@@H](NC(=O)[C@H](Cc1ccccc1)NC)C(C)C)C(=O)N[C@@H](Cc1ccccc1)C(=O)N[C@H](C(=O)N[C@@H](Cc1ccc(O)cc1)C(=O)NCC(=O)N[C@@H](CCC(=O)O)C(=O)N[C@@H](CC(C)C)C(=O)N[C@@H](CCC(N)=O)C(=O)N[C@H](CCCNC(=N)N)C(=O)N[C@@H](CC(C)C)C(=O)N[C@H](CCC(N)=O)C(N)=O)[C@@H](C)O` (H-[NMeF]VAIFTYGELQ[dR]L[dQ]-NH2), at motilin receptor (pIC50, negative logarithm of the concentration displacing 50% of [125I-Tyr7, Nle13]motilin(porcine) from rabbit antral smooth muscle membranes), the IC50 was 0.776 nM. For the same compound, the negative-log EC50 (pEC50) in assay [1] came to 8.07.

As for `CC[C@H](C)[C@H](NC(=O)[C@@H]1CCCN1C(=O)[C@@H](NC(=O)[C@H](Cc1ccccc1)NC)C(C)C)C(=O)N[C@@H](Cc1ccccc1)C(=O)N[C@H](C(=O)N[C@@H](Cc1ccc(O)cc1)C(=O)NCC(=O)N[C@@H](CCC(=O)O)C(=O)N[C@@H](CC(C)C)C(=O)N[C@@H](CCC(N)=O)C(=O)N[C@@H](CCCNC(=N)N)C(=O)N[C@@H](CC(C)C)C(=O)N[C@H](CCC(N)=O)C(N)=O)[C@@H](C)O` (H-[NMeF]VPIFTYGELQRL[dQ]-NH2), the IC50 on motilin receptor (setting [2]) was 0.617 nM.

As for `CC[C@H](C)[C@H](NC(=O)[C@@H]1CCCN1C(=O)[C@@H](NC(=O)[C@H](Cc1ccccc1)NC)C(C)C)C(=O)N[C@@H](Cc1ccccc1)C(=O)N[C@H](C(=O)N[C@@H](Cc1ccc(O)cc1)C(=O)NCC(=O)N[C@@H](CCC(=O)O)C(=O)N[C@@H](CC(C)C)C(=O)N[C@@H](CCC(N)=O)C(=O)N[C@H](CCCNC(=N)N)C(=O)N[C@@H](CC(C)C)C(=O)N[C@@H](CCC(N)=O)C(N)=O)[C@@H](C)O` (H-[NMeF]VPIFTYGELQ[dR]LQ-NH2), at motilin receptor (setting [2]), the IC50 was 1.02 nM. This compound came in with a pEC50 in assay [1] of 7.95.

As to `CC[C@H](C)[C@H](NC(=O)[C@H](C)NC(=O)[C@@H](NC(=O)[C@H](N)CC1CCCCC1)C(C)C)C(=O)N[C@@H](Cc1ccccc1)C(=O)N[C@H](C(=O)N[C@@H](Cc1ccc(O)cc1)C(=O)NCC(=O)N[C@@H](CCC(=O)O)C(=O)N[C@@H](CC(C)C)C(=O)N[C@@H](C)C(=O)N[C@H](CCCNC(=N)N)C(=O)N[C@@H](CC(C)C)C(=O)N[C@H](CCCCN)C(N)=O)[C@@H](C)O` (H-[dCha]VAIFTYGELA[dR]L[dK]-NH2), the IC50 at motilin receptor (setting [2]) is 0.933 nM. For the same compound, the negative logarithm of the EC50 (pEC50) in assay [1] amounted to 7.25.

For `CC[C@H](C)[C@H](NC(=O)[C@H](C)NC(=O)[C@@H](NC(=O)[C@H](Cc1ccccc1)N(C)C)C(C)C)C(=O)N[C@@H](Cc1ccccc1)C(=O)N[C@H](C(=O)N[C@@H](Cc1ccc(O)cc1)C(=O)NCC(=O)N[C@@H](CCC(=O)O)C(=O)N[C@@H](CC(C)C)C(=O)N[C@@H](C)C(=O)N[C@H](CCCNC(=N)N)C(=O)N[C@@H](CC(C)C)C(=O)N[C@H](CCCCN)C(N)=O)[C@@H](C)O` (NMe2Phe-VAIFTYGELA[dR]L[dK]-NH2), the IC50 at motilin receptor (setting [2]) is 4.07 nM. Moreover, the pEC50 in assay [1] turned out to be 7.73.

As to `CC[C@H](C)[C@H](NC(=O)[C@@H]1CCCN1C(=O)[C@@H](NC(=O)[C@H](Cc1ccccc1)N(C)C)C(C)C)C(=O)N[C@@H](Cc1ccccc1)C(=O)N[C@H](C(=O)N[C@@H](Cc1ccc(O)cc1)C(=O)NCC(=O)N[C@@H](CCC(=O)O)C(=O)N[C@@H](CC(C)C)C(=O)N[C@@H](C)C(=O)N[C@H](CCCNC(=N)N)C(=O)N[C@@H](CC(C)C)C(=O)N[C@@H](CCC(N)=O)C(N)=O)[C@@H](C)O` (NMe2Phe-VPIFTYGELA[dR]LQ-NH2), the IC50 on motilin receptor (setting [2]) is 1.95 nM. Besides, the pEC50 in assay [1] is 7.76.

In the case of `CC[C@H](C)[C@H](NC(=O)[C@H](C)NC(=O)[C@@H](NC(=O)[C@H](Cc1ccccc1)[N+](C)(C)C)C(C)C)C(=O)N[C@@H](Cc1ccccc1)C(=O)N[C@H](C(=O)N[C@@H](Cc1ccc(O)cc1)C(=O)NCC(=O)N[C@@H](CCC(=O)O)C(=O)N[C@@H](CC(C)C)C(=O)N[C@@H](C)C(=O)N[C@H](CCCNC(=N)N)C(=O)N[C@@H](CC(C)C)C(=O)N[C@@H](CCC(N)=O)C(N)=O)[C@@H](C)O` (X1-VAIFTYGELA[dR]LQ-NH2), the IC50 at motilin receptor (setting [2]) was 1.95 nM. The negative logarithm of the EC50 (pEC50) in assay [1] is recorded as 7.31.

As for `CC[C@H](C)[C@H](NC(=O)[C@H](C)NC(=O)[C@@H](NC(=O)[C@H](Cc1ccccc1)[N+](C)(C)C)C(C)C)C(=O)N[C@@H](Cc1ccccc1)C(=O)N[C@H](C(=O)N[C@@H](Cc1ccc(O)cc1)C(=O)NCC(=O)N[C@@H](CCC(=O)O)C(=O)N[C@@H](CC(C)C)C(=O)N[C@@H](C)C(=O)N[C@H](CCCNC(=N)N)C(=O)N[C@@H](CC(C)C)C(=O)N[C@H](CCC(N)=O)C(N)=O)[C@@H](C)O` (X1-VAIFTYGELA[dR]L[dQ]-NH2), the IC50 on motilin receptor (setting [2]) is 1.45 nM. The same compound gave a pEC50 in assay [1] of 7.22.

As for `CC[C@H](C)[C@H](NC(=O)[C@H](C)NC(=O)[C@@H](NC(=O)[C@H](Cc1ccccc1)[N+](C)(C)C)C(C)C)C(=O)N[C@@H](Cc1ccccc1)C(=O)N[C@H](C(=O)N[C@@H](Cc1ccc(O)cc1)C(=O)NCC(=O)N[C@@H](CCC(=O)O)C(=O)N[C@@H](CC(C)C)C(=O)N[C@@H](CCC(N)=O)C(=O)N[C@@H](CCCNC(=N)N)C(=O)N[C@@H](CC(C)C)C(=O)N[C@@H](CCCCN)C(N)=O)[C@@H](C)O` (X1-VAIFTYGELQRLK-NH2), the IC50 at motilin receptor (setting [2]) is 1.51 nM. In assay [1], this compound yielded a pEC50 of 7.58.

Turning to `CC[C@H](C)[C@H](NC(=O)[C@H](C)NC(=O)[C@@H](NC(=O)[C@H](Cc1ccccc1)[N+](C)(C)C)C(C)C)C(=O)N[C@@H](Cc1ccccc1)C(=O)N[C@H](C(=O)N[C@@H](Cc1ccc(O)cc1)C(=O)NCC(=O)N[C@@H](CCC(=O)O)C(=O)N[C@@H](CC(C)C)C(=O)N[C@@H](CCC(N)=O)C(=O)N[C@H](CCCNC(=N)N)C(=O)N[C@@H](CC(C)C)C(=O)N[C@@H](CCC(N)=O)C(N)=O)[C@@H](C)O` (X1-VAIFTYGELQ[dR]LQ-NH2) [listing 1 of 2 here], the IC50 at motilin receptor (setting [2]) is 2.63 nM.

Turning to `CC[C@H](C)[C@H](NC(=O)[C@H](C)NC(=O)[C@@H](NC(=O)[C@H](Cc1ccccc1)[N+](C)(C)C)C(C)C)C(=O)N[C@@H](Cc1ccccc1)C(=O)N[C@H](C(=O)N[C@@H](Cc1ccc(O)cc1)C(=O)NCC(=O)N[C@@H](CCC(=O)O)C(=O)N[C@@H](CC(C)C)C(=O)N[C@@H](CCC(N)=O)C(=O)N[C@H](CCCNC(=N)N)C(=O)N[C@@H](CC(C)C)C(=O)N[C@@H](CCC(N)=O)C(N)=O)[C@@H](C)O` (X1-VAIFTYGELQ[dR]LQ-NH2) [listing 2 of 2 here], the IC50 at motilin receptor (setting [2]) was 1.62 nM.

In assay [1], `CC[C@H](C)[C@H](NC(=O)[C@H](C)NC(=O)[C@@H](NC(=O)[C@H](Cc1ccccc1)[N+](C)(C)C)C(C)C)C(=O)N[C@@H](Cc1ccccc1)C(=O)N[C@H](C(=O)N[C@@H](Cc1ccc(O)cc1)C(=O)NCC(=O)N[C@@H](CCC(=O)O)C(=O)N[C@@H](CC(C)C)C(=O)N[C@@H](CCC(N)=O)C(=O)N[C@H](CCCNC(=N)N)C(=O)N[C@@H](CC(C)C)C(=O)N[C@@H](CCC(N)=O)C(N)=O)[C@@H](C)O` [[Me3 N^+ Phe^1, Ala^3, D-Arg^12, Leu^13 pMOT(1-14) amide] (X1-VAIFTYGELQ[dR]LQ-NH2) yielded a pEC50 of 7.57.

With `CC[C@H](C)[C@H](NC(=O)[C@H](C)NC(=O)[C@@H](NC(=O)[C@H](Cc1ccccc1)[N+](C)(C)C)C(C)C)C(=O)N[C@@H](Cc1ccccc1)C(=O)N[C@H](C(=O)N[C@@H](Cc1ccc(O)cc1)C(=O)NCC(=O)N[C@@H](CCC(=O)O)C(=O)N[C@@H](CC(C)C)C(=O)N[C@@H](CCC(N)=O)C(=O)N[C@H](CCCNC(=N)N)C(=O)N[C@@H](CC(C)C)C(=O)N[C@@H](CCC(N)=O)C(N)=O)[C@@H](C)O` [[Me3 N^+ Phe^1, Ala^3, D-Arg^13, Leu^13 ]pMOT(1-14) amide] (X1-VAIFTYGELQ[dR]LQ-NH2), the pEC50 in assay [1] turned out to be 7.32.

For the origin of these results see US5422341A, “Motilin-like polypeptides with gastrointestinal motor stimulating activity” (Ohmeda Pharmaceutical Products Division Inc., priority 1993, dated 1995).
